According to patent publication EP3782997A1, “FUSED PYRIMIDINE COMPOUNDS AND PHARMACEUTICAL COMPOSITIONS THEREOF FOR THE TREATMENT OF FIBROTIC DISEASES” (Galapagos N.V., priority 2019, dated 2021):

Target: hENPP2 (Homo sapiens, UniProt Q13822)
Assay: Human ENPP2 (hENPP2) biochemical assay using LPC as substrate
Conditions: 150 µM LPC (palmitoyl 16:0), 37°C for 30 min
In short: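 Enzyme at 1 or 3 µg/mL final in Tris-HCl pH 8.5, NaCl, KCl, CaCl2, fatty-acid-free BSA; reaction started with 150 µM LPC 16:0 (as added), 30 min at 37°C. Released choline developed with choline oxidase/peroxidase/TOOS/4-aminoantipyrine plus EGTA stop, read at 555 nm after 30 min; 1/3 dilutions from 50 µM give IC50.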

SMILES | IC50 [nM]
Cc1cc(C)cc(Nc2ncc3c(n2)CN(C2CCCN(C(=O)c4ccc5[nH]c(=O)oc5c4)C2)C3)c1 (centres unmarked) [compound 39, 6-[3-[2-(3,5-dimethylanilino)-5,7-dihydropyrrolo[3,4-d]pyrimidin-6-yl]piperidine-1-carbonyl]-3H-1,3-benzoxazol-2-one] | > 1000
Cc1cc(C)cc(Nc2ncc3c(n2)CN(C2CCN(C(=O)c4ccc5[nH]nnc5c4)CC2F)C3)c1 (centres unmarked) [compound 40, 1H-benzotriazol-5-yl-[4-[2-(3,5-dimethylanilino)-5,7-dihydropyrrolo[3,4-d]pyrimidin-6-yl]-3-fluoro-1-piperidyl]methanone] | 0.01 to 100
Cc1cc(C)cc(Nc2ncc3c(n2)CN(C2CC4(C2)CN(C(=O)c2ccc5[nH]nnc5c2)C4)C3)c1 [compound 41, 1H-benzotriazol-5-yl-[6-[2-(3,5-dimethylanilino)-5,7-dihydropyrrolo[3,4-d]pyrimidin-6-yl]-2-azaspiro[3.3]heptan-2-yl]methanone] | 500 to 1000
Cc1cncc(Nc2ncc3c(n2)CN(C2CN(C(=O)c4ccc5[nH]nnc5c4)C2)C3)c1 [compound 43, 1H-benzotriazol-5-yl-[3-[2-[(5-methyl-3-pyridyl)amino]-5,7-dihydropyrrolo[3,4-d]pyrimidin-6-yl]azetidin-1-yl]methanone] | 500 to 1000
Cc1cncc(Nc2ncc3c(n2)CN(C2CCN(C(=O)c4ccc(S(N)(=O)=O)cc4)CC2)C3)c1 [compound 47, 4-[4-[2-[(5-methyl-3-pyridyl)amino]-5,7-dihydropyrrolo[3,4-d]pyrimidin-6-yl]piperidine-1-carbonyl]benzenesulfonamide] | > 1000
Cc1cncc(Nc2ncc3c(n2)CN(C2CN(C(=O)c4ccc(S(N)(=O)=O)cc4)C2)C3)c1 [compound 48, 4-[3-[2-[(5-methyl-3-pyridyl)amino]-5,7-dihydropyrrolo[3,4-d]pyrimidin-6-yl]azetidine-1-carbonyl]benzenesulfonamide] | > 1000
Cc1cncc(Nc2ncc3c(n2)CN(C2CCN(C(=O)c4ccc5[nH]nnc5c4)CC2)C3)c1 [compound 49, 1H-benzotriazol-5-yl-[4-[2-[(5-methyl-3-pyridyl)amino]-5,7-dihydropyrrolo[3,4-d]pyrimidin-6-yl]-1-piperidyl]methanone] | 500 to 1000
Cn1nc(C(C)(C)C)cc1Nc1ncc2c(n1)CN(C1CCN(C(=O)c3ccc4[nH]nnc4c3)CC1)C2 [compound 50, 1H-benzotriazol-5-yl-[4-[2-[(5-tert-butyl-2-methyl-pyrazol-3-yl)amino]-5,7-dihydropyrrolo[3,4-d]pyrimidin-6-yl]-1-piperidyl]methanone] | > 1000
Cc1cc(C)nc(Nc2ncc3c(n2)CN(C2CN(C(=O)c4ccc5[nH]nnc5c4)C2)C3)c1 [compound 51, 1H-benzotriazol-5-yl-[3-[2-[(4,6-dimethyl-2-pyridyl)amino]-5,7-dihydropyrrolo[3,4-d]pyrimidin-6-yl]azetidin-1-yl]methanone] | 500 to 1000
Cc1cc(C)nc(Nc2ncc3c(n2)CN(C2CCN(C(=O)c4ccc5nn[nH]c5c4)CC2)C3)c1 [compound 56, 3H-benzotriazol-5-yl-[4-[2-[(4,6-dimethyl-2-pyridyl)amino]-5,7-dihydropyrrolo [3,4-d]pyrimidin-6-yl]-1-piperidyl]methanone] | > 1000
O=C(c1ccc2[nH]c(=O)oc2c1)N1CC(N2Cc3cnc(Nc4cc(F)cc(F)c4)nc3C2)C1 [compound 57, 6-[3-[2-(3,5-difluoroanilino)-5,7-dihydropyrrolo[3,4-d]pyrimidin-6-yl]azetidine-1-carbonyl]-3H-1,3-benzoxazol-2-one] | 0.01 to 100
Cc1cc(C)cc(Nc2ncc3c(n2)CN(C2CCN(C(=O)c4ccc5[nH]c(=S)oc5c4)CC2)C3)c1 [compound 61, [4-[2-(3,5-dimethylanilino)-5,7-dihydropyrrolo[3,4-d]pyrimidin-6-yl]-1-piperidyl]-(2-thioxo-3H-1,3-benzoxazol-6-yl)methanone] | 0.01 to 100

More lines, now with the values ahead:

IC50 [nM] | SMILES
100 to 500 | COc1cc(Nc2ncc3c(n2)CN(C2CCN(C(=O)c4ccc5[nH]nnc5c4)C2)C3)cc(OC)c1 (centres unmarked) [compound 42, 1H-benzotriazol-5-yl-[3-[2-(3,5-dimethoxyanilino)-5,7-dihydropyrrolo[3,4-d]pyrimidin-6-yl]pyrrolidin-1-yl]methanone]
> 1000 | Cc1cncc(Nc2ncc3c(n2)CN(C2CCN(C(=O)c4ccc5[nH]nnc5c4)C2)C3)c1 (centres unmarked) [compound 44, 1H-benzotriazol-5-yl-[3-[2-[(5-methyl-3-pyridyl)amino]-5,7-dihydropyrrolo[3,4-d]pyrimidin-6-yl]pyrrolidin-1-yl]methanone]
> 1000 | Cc1cncc(Nc2ncc3c(n2)CN(C2CCN(C(=O)c4ccc(S(N)(=O)=O)cc4)C2)C3)c1 (centres unmarked) [compound 45, 4-[3-[2-[(5-methyl-3-pyridyl)amino]-5,7-dihydropyrrolo[3,4-d]pyrimidin-6-yl]pyrrolidine-1-carbonyl]benzenesulfonamide]
> 1000 | Cn1nc(C(C)(C)C)cc1Nc1ncc2c(n1)CN(C1CN(C(=O)c3ccc4[nH]nnc4c3)C1)C2 [compound 46, 1H-benzotriazol-5-yl-[3-[2-[(5-tert-butyl-2-methyl-pyrazol-3-yl)amino]-5,7-dihydropyrrolo[3,4-d]pyrimidin-6-yl]azetidin-1-yl]methanone]
100 to 500 | Cc1cc(C)nc(Nc2ncc3c(n2)CN(C2CN(C(=O)c4ccc5[nH]c(=O)oc5c4)C2)C3)c1 [compound 52, 6-[3-[2-[(4,6-dimethyl-2-pyridyl)amino]-5,7-dihydropyrrolo[3,4-d]pyrimidin-6-yl]azetidine-1-carbonyl]-3H-1,3-benzoxazol-2-one]
100 to 500 | O=C(c1ccc2[nH]nnc2c1)N1CC(N2Cc3cnc(Nc4cc(F)cc(F)c4)nc3C2)C1 [compound 53, 1H-benzotriazol-5-yl-[3-[2-(3,5-difluoroanilino)-5,7-dihydropyrrolo[3,4-d]pyrimidin-6-yl]azetidin-1-yl]methanone]
100 to 500 | O=C(c1ccc2[nH]nnc2c1)N1CCC(N2Cc3cnc(Nc4cc(F)cc(F)c4)nc3C2)CC1 [compound 54, 1H-benzotriazol-5-yl-[4-[2-(3,5-difluoroanilino)-5,7-dihydropyrrolo[3,4-d]pyrimidin-6-yl]-1-piperidyl]methanone]
100 to 500 | O=C(c1ccc2[nH]c(=O)oc2c1)N1CCC(N2Cc3cnc(Nc4cc(F)cc(F)c4)nc3C2)CC1 [compound 55, 6-[4-[2-(3,5-difluoroanilino)-5,7-dihydropyrrolo[3,4-d]pyrimidin-6-yl]piperidine-1-carbonyl]-3H-1,3-benzoxazol-2-one]
0.01 to 100 | N#Cc1ccc(Nc2ncc3c(n2)CN(C2CN(C(=O)c4ccc5[nH]nnc5c4)C2)C3)cc1 [compound 58, 4-[[6-[1-(1H-benzotriazole-5-carbonyl)azetidin-3-yl]-5,7-dihydropyrrolo[3,4-d]pyrimidin-2-yl]amino]benzonitrile]
0.01 to 100 | N#Cc1ccc(Nc2ncc3c(n2)CN(C2CCN(C(=O)c4ccc5[nH]nnc5c4)CC2)C3)cc1 [compound 59, 4-[[6-[1-(1H-benzotriazole-5-carbonyl)-4-piperidyl]-5,7-dihydropyrrolo[3,4-d]pyrimidin-2-yl]amino]benzonitrile]
0.01 to 100 | Cc1cc(C)cc(Nc2ncc3c(n2)CN(C2CN(C(=O)c4ccc5[nH]c(=S)oc5c4)C2)C3)c1 [compound 62, [3-[2-(3,5-dimethylanilino)-5,7-dihydropyrrolo[3,4-d]pyrimidin-6-yl]azetidin-1-yl]-(2-thioxo-3H-1,3-benzoxazol-6-yl)methanone]
